# Measured values taken from patent US7960427B2, “5-hydroxyindole-3-carboxylate derivatives and uses thereof” (priority 2004, dated 2011).
# Where a name gives a salt, the structure may show the parent alone. Read-outs that look alike come from different tables or passages of the source.
# Columns and labels:
# [1] = tested on: influenza A virus, strain A/jifang/90-15; assay: microbe, parasite or virus in culture; type: cell-based; conditions: for IC50: Influenza strain A/jifang/90-15, MDCK cells, CPE, Reed-Muench; for SI: Influenza strain A/jifang/90-15
# [2] = tested on: Madin-Darby canine kidney (MDCK) cells
# [3] = tested on: HBV DNA; assay: In vitro anti-HBV activity: replication of HBV DNA in 2.2.15 cells (dot hybridization); type: cell-based, Hepatitis B virus (HBV); conditions: for IC50: Hepatitis B virus, read-out: DNA replication IC50; for DNA replication SI: selectivity index
# Method: (§1) All compounds were evaluated for their anti-HBV activities, namely the ability to inhibit the replication of HBV DNA and the production of HBsAg and HBeAg in HBV-infected 2.2.15 cells.
# (§2) The samples were dissolved in DMSO for appropriate concentrations, and then each was diluted 3-fold with culture medium. The 2.2.15 cells were planted into 96-well culture plates. […] The culture supernatants and 2.2.15 cells were collected respectively on the 8th plant day. The secretion concentrations of HBsAg and HBeAg in the culture supernatants were measured by RIA on SPRIA Kit for Detection of HBsAg and HBeAg (Beijing North Institute of Biological Technology), and the replication of HBV DNA was measured by dot hybridization with a^32PdCTP (FuRui Biological Technology Ltd., China).
# [4] = tested on: 2.2.15 cells; assay: Cytotoxicity (TC50) in 2.2.15 cells; type: cell-based
# Method: as §1, §2
# [5] = tested on: HBsAg; assay: In vitro anti-HBV activity: HBsAg production in HBV-infected 2.2.15 cells (RIA); type: cell-based, Hepatitis B virus (HBV); conditions: for IC50: Hepatitis B virus, read-out: HBsAg IC50; for HBsAg SI: selectivity index
# Method: as §1, §2
# [6] = target: T1, HIV-1 protease (Human immunodeficiency virus type 1 group M subtype B, UniProt P04585); assay: Anti-HIV-1 protease activity (fluorescence labeled substrate); type: biochemical; conditions: for inhibition ratio at 0.5 ug/ml: sample concentration 0.5 ug/ml; for inhibition ratio at 2.0 ug/ml: sample concentration 2.0 ug/ml; for inhibition ratio at 10 ug/ml: sample concentration 10 ug/ml; for inhibition ratio at 50 ug/ml: sample concentration 50 ug/ml; for inhibition ratio at 250 ug/ml: sample concentration 250 ug/ml
# T1 construct: The genetically engineered target enzyme (HIV-1 protease, preserved at −85° C.)
# Method: HIV-1 protease can cut the fluorescence labeled substrate under optimal condition and reaction system, so the activity of enzyme is determined by the fluorescence in the product of enzymatic reaction. The samples are added into the reaction system to observe the inhibitive effect on the enzyme.
# The samples and the reference drug Indinavir ([…].) were dissolved in DMSO or redistilled water for appropriate concentration. Each was diluted 5-fold and then added into the buffer containing fluorescence labeled substrate (MP Co.). The genetically engineered target enzyme (HIV-1 protease, preserved at −85° C.) was added to the buffer and incubated under the optimal reaction condition. The fluorescence was determined by FLUO star Galaxy fluorometer.
# [7] = Influenza A virus, read-out: IC50
Structure (SMILES),IC50 [3] [µg/mL],DNA replication SI [3],TC50 [4] [µg/mL],IC50 [5] [µg/mL],HBsAg SI [5],other results
"CCOC(=O)c1c(CSc2ccccc2)n(C)c2cc(Br)c(O)c(CN(C)C)c12.Cl.O [Abidol, Ethyl 6-bromo-4-[(dimethylamino)methyl]-5-hydroxy-1-methyl-2-(phenyl-thiomethyl)-1H-indole-3-carboxylate hydrochloride monohydrate, reference compound]",–,–,–,–,–,"IC50 [1, 7]: 23.2 µg/mL; SI [1]: 2.69; TC50 [2]: 62.5 µg/mL"
"CCOC(=O)c1c(CSc2nc3ccccc3[nH]2)n(C)c2cc(Br)c(O)c(CN(C)C)c12 [Example 3, Ethyl 6-bromo-4-[(dimethylamino)methyl]-5-hydroxy-1-methyl-2-[(benzo[d]imidazol-2-yl)thiomethyl]-1H-indole-3-carboxylate]",–,–,–,–,–,"IC50 [1, 7]: 7.81 µg/mL; SI [1]: 1.59; TC50 [2]: 12.4 µg/mL"
"CCOC(=O)c1c(CSCc2ccc(F)cc2)n(C)c2cc(Br)c(O)c(CN(C)C)c12.Cl [Example 5, Ethyl 6-bromo-4-[(dimethylamino)methyl]-5-hydroxy-1-methyl-2-[(4-fluorobenzyl)thiomethyl]-1H-indole-3-carboxylate hydrochloride]",–,–,–,–,–,"IC50 [1, 7]: 7.81 µg/mL; SI [1]: 6.34; TC50 [2]: 49.51 µg/mL"
"CCOC(=O)c1c(CSCc2ccccc2F)n(C2CC2)c2cc(Br)c(O)c(CN3CCCC3)c12.Cl [Example 14, Ethyl 6-bromo-1-cyclopropyl-5-hydroxy-4-(1-pyrrolidinylmethyl)-2-[(2-fluorobenzyl)thiomethyl]-1H-indole-3-carboxylate hydrochloride]",–,–,–,–,–,"IC50 [1, 7]: 0.92 µg/mL; SI [1]: 2.7; TC50 [2]: 2.48 µg/mL"
"CCOC(=O)c1c(CSc2nc3ccc(OC)cc3[nH]2)n(C)c2cc(Br)c(O)c(CN3CCOCC3)c12 [Example 25, Ethyl 6-bromo-5-hydroxy-1-methyl-4-(morpholinomethyl)-2-[(5-methoxybenzo[d]imidazol-2-yl)thiomethyl]-1H-indole-3-carboxylate]",–,–,–,–,–,"IC50 [1, 7]: 22.1 µg/mL; SI [1]: 5.66; TC50 [2]: 125.0 µg/mL"
"CCOC(=O)c1c(C[S+]([O-])Cc2cscn2)n(C2CC2)c2cc(Br)c(O)c(CN(C)C)c12 (stereo not shown) [Example 52, Ethyl 6-bromo-1-cyclopropyl-4-[(dimethylamino)methyl]-5-hydroxy-2-[(4-thiazolylmethyl)sulfinylmethyl]-1H-indole-3-carboxylate dihydrochloride]",3.51,18.27,64.15,4.79,13.39,–
"CCOC(=O)c1c(C[S+]([O-])Cc2ccco2)n(C)c2cc(Br)c(O)c(CN3CCCC3)c12 (stereo not shown) [Example 71, Ethyl 6-bromo-5-hydroxy-1-methyl-4-(1-pyrrolidinylmethyl)-2-[(2-furylmethyl)sulfinylmethyl]-1H-indole-3-carboxylate]",23.9,1.60,38.32,18.4,2.09,–
"CCOC(=O)c1c(C[S+]([O-])c2ccc(C(F)(F)F)cc2)n(C2CC2)c2cc(Br)c(O)c(CN(C)C)c12 (stereo not shown) [Example 79, Ethyl 6-bromo-1-cyclopropyl-4-[(dimethylamino)methyl]-5-hydroxy-2-[(4-trifluoromethylphenyl)sulfinylmethyl]-1H-indole-3-carboxylate]",4.47,3.83,17.12,6.3,2.72,–
"CCOC(=O)c1c(CS(=O)(=O)c2ccc(C(F)(F)F)cc2)n(C)c2cc(Br)c(O)c(CN3CCCC3)c12 [Example 82, Ethyl 6-bromo-5-hydroxy-1-methyl-4-(1-pyrrolidinylmethyl)-2-[(4-trifluoromethylphenyl)sulfonylmethyl]-1H-indole-3-carboxylate]",6.1,2.34,14.25,7.83,1.82,–
"CCOC(=O)c1c(CS(=O)(=O)c2cccc(C(F)(F)F)c2)n(C2CC2)c2cc(Br)c(O)c(CN3CCCC3)c12 [Example 83, Ethyl 6-bromo-1-cyclopropyl-5-hydroxy-4-(1-pyrrolidinylmethyl)-2-[(3-trifluoromethylphenyl)sulfonylmethyl]-1H-indole-3-carboxylate]",6.38,5.58,35.61,18.3,1.94,–
"CCOC(=O)c1c(CSc2nc3ccccc3[nH]2)n(C)c2cc(Br)c(O)c(Cn3ccnc3)c12.Cl [Example 94, Ethyl 6-bromo-5-hydroxy-4-[(1-imidazolyl)methyl]-1-methyl-2-[(benzo[d]imidazol-2-yl)thiomethyl]-1H-indole-3-carboxylate hydrochloride]",–,–,53.42,7.37,7.25,–
"CCOC(=O)c1c(C[S+]([O-])c2ccc(F)cc2)n(C)c2cc(Br)c(O)c(Cn3ccnc3)c12 (stereo not shown) [Example 122, Ethyl 6-bromo-5-hydroxy-4-[(1-imidazolyl)methyl]-1-methyl-2-[(4-fluorophenyl)sulfinylmethyl]-1H-indole-3-carboxylate]",13.6,3.54,48.1,11.4,4.23,–
"CCOC(=O)c1c(C[S+]([O-])c2ccc(F)cc2)n(C2CC2)c2cc(Br)c(O)c(Cn3ccnc3C)c12 (stereo not shown) [Example 138, Ethyl 6-bromo-1-cyclopropyl-5-hydroxy-4-[(2-methyl-1-imidazolyl)methyl]-2-[(4-fluorophenyl)sulfinylmethyl]-1H-indole-3-carboxylate]",5,3.74,18.52,–,–,IC50 [6]: 111 µM; inhibition ratio at 0.5 ug/ml [6]: 6.8; inhibition ratio at 2.0 ug/ml [6]: −2.3; inhibition ratio at 10 ug/ml [6]: 6.4; inhibition ratio at 50 ug/ml [6]: 12.7; inhibition ratio at 250 ug/ml [6]: 75.7
"CCOC(=O)c1c(C[S+]([O-])c2ccc(F)cc2)n(C)c2cc(Br)c(O)c(CNC(=N)N)c12 (stereo not shown) [Example 153, Ethyl 6-bromo-4-(guanidinylmethyl)-5-hydroxy-1-methyl-2-[(4-fluorophenyl)sulfinylmethyl]-1H-indole-3-carboxylate]",29.3,4.27,125,62.2,2.01,IC50 [6]: 133 µM; inhibition ratio at 0.5 ug/ml [6]: 7.2; inhibition ratio at 2.0 ug/ml [6]: 14.7; inhibition ratio at 10 ug/ml [6]: 11.2; inhibition ratio at 50 ug/ml [6]: 24.1; inhibition ratio at 250 ug/ml [6]: 75.3
"CCOC(=O)c1c(C[S+]([O-])c2ccc(F)cc2)n(C2CC2)c2cc(Br)c(O)c(CNC(=N)N)c12 (stereo not shown) [Example 154, Ethyl 6-bromo-1-cyclopropyl-4-(guanidinylmethyl)-5-hydroxy-2-[(4-fluorophenyl)sulfinylmethyl]-1H-indole-3-carboxylate]",5.2,3.63,18.52,–,–,IC50 [6]: 43.5 µM; inhibition ratio at 0.5 ug/ml [6]: 3.2; inhibition ratio at 2.0 ug/ml [6]: 13.2; inhibition ratio at 10 ug/ml [6]: 4.8; inhibition ratio at 50 ug/ml [6]: 19.8; inhibition ratio at 250 ug/ml [6]: 109.3
"CCOC(=O)c1c(CSc2cccc(F)c2)n(C)c2cc(Br)c(O)c(Cn3ccnc3)c12 [Example 175, Ethyl 6-bromo-5-hydroxy-4-[(1-imidazolyl)methyl]-1-methyl-2-[(3-fluorophenyl)thiomethyl]-1H-indole-3-carboxylate]",4.65,7.66,35.61,2.45,14.53,–
"CCOC(=O)c1c(C[S+]([O-])c2ccc(C(F)(F)F)cc2)n(C)c2cc(Br)c(O)c(Cn3ccnc3)c12 (stereo not shown) [Example 177, Ethyl 6-bromo-5-hydroxy-4-[(1-imidazolyl)methyl]-1-methyl-2-[(4-trifluoromethylphenyl)sulfinylmethyl]-1H-indole-3-carboxylate]",15.9,6.72,106.83,31.5,3.39,–
"CCOC(=O)c1c(CSc2nc3ccccc3[nH]2)n(C)c2cc(Br)c(O)c(Cn3ccnc3C)c12.Cl [Example 181, Ethyl 6-bromo-5-hydroxy-1-methyl-4-[(2-methyl-1-imidazolyl)methyl]-2-[(benzo[d]imidazol-2-yl)thiomethyl]-1H-indole-3-carboxylate hydrochloride]",–,–,21.38,1.55,13.79,–
"NC(=O)c1ncn([C@@H]2O[C@H](CO)[C@@H](O)[C@H]2O)n1 [Ribovirin, reference compound]",–,–,–,–,–,IC50 [1]: >33.81 µg/mL
